Values of other authors as cited in patent publication US12662501B2, “Transcriptome In Vivo Analysis (TIVA) and Transcriptome In Situ Analysis (TISA)” (The Trustees of the University of Pennsylvania, priority 2014, dated 2026).

Assays:
[1] = for Eop: 1MLCT Ru→bpy(π1*) transition; for λmax: 1MLCT band

SMILES | Eop [1] | λmax [1] | ε (1P, 424 nm) | Φ (RuBi-caged GABA) | εΦ (RuBi-caged GABA, 1P, 424 nm)
CSc1ccccc1.CSc1ccccc1.[Ru+2].c1ccc(-c2ccccn2)nc1.c1ccc(-c2ccccn2)nc1 [(MeSPh)2] | 24752 cm⁻¹ | 404 nm |  |  | 
CCSC.CCSC.[Ru+2].c1ccc(-c2ccccn2)nc1.c1ccc(-c2ccccn2)nc1 [(MeSEt)2] | 23697 cm⁻¹ | 422 nm |  |  | 
Cn1ccnc1.Cn1ccnc1.[Ru+2].c1ccc(-c2ccccn2)nc1.c1ccc(-c2ccccn2)nc1 [(N-MeIm)2] | 20700 cm⁻¹ | 483 nm |  |  | 
F[P-](F)(F)(F)(F)F.NCCCC(=O)[O-].[Ru+2].c1ccc(-c2ccccn2)nc1.c1ccc(-c2ccccn2)nc1.c1ccc(P(c2ccccc2)c2ccccc2)cc1 [RuBi-caged GABA] |  |  | 6400 M⁻¹ cm⁻¹ | 0.2 | 1280
[Ru+2].c1ccc(-c2ccccn2)nc1.c1ccc(-c2ccccn2)nc1.c1ccc(P(c2ccccc2)c2ccccc2)cc1.c1ccc(P(c2ccccc2)c2ccccc2)cc1 [(PPh3)2] | 23870 cm⁻¹ | 419 nm |  |  | 
C=CCn1cnnc1 [4-ally1-1,2,4-triazole] | 21190 cm⁻¹ | 472 nm |  |  | 
CC(=O)c1ccncc1.CC(=O)c1ccncc1.[Ru+2].c1ccc(-c2ccccn2)nc1.c1ccc(-c2ccccn2)nc1 [(4-AcPyr)2] | 22620 cm⁻¹ | 442 nm |  |  | 
N.N.[Ru+2].c1ccc(-c2ccccn2)nc1.c1ccc(-c2ccccn2)nc1 [(NH3)2] | 20410 cm⁻¹ | 490 nm |  |  | 
[Ru+2].c1ccc(-c2ccccn2)nc1.c1ccc(-c2ccccn2)nc1.c1ccncc1.c1ccncc1 [(Pyr)2] | 21980 cm⁻¹ | 455 nm |  |  | 
